# Source: the supplement of paper PMC9938120
# How the values were obtained:
# Test in all cases: drug sensitivity score (DSS3, normalised partial AUC of % inhibition dose-response) (DSS (score)); higher = more sensitive (stronger inhibition of viability); extreme values may be limits of the assay
# Conditions in all cases: 72 h; library: FO5A; assay format: 2D, 384-well, CellTiter-Glo
# FMOC06 = system: FMOC06 (patient-derived mucinous ovarian cancer cells)
# How it was run: (§1)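 The drug sensitivity score is calculated as a partial area under the percent-inhibition dose-response curve, divided by the log of the upper asymptote; higher scores mean more sensitive. For this score, early-passage (under 10) patient-derived ovarian cancer cells were exposed on 384-well flat clear-bottom plates to compounds at five concentrations across a 10,000-fold range for 72 h at 37 °C, 5% CO2. Viability was read with CellTiter-Glo and processed in Breeze.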
# FMOC02_3 = system: FMOC02_3 (patient-derived low-grade serous ovarian cancer cells)
# How it was run: as §1
# FMOC17 = system: FMOC17 (patient-derived low-grade serous ovarian cancer cells)
# How it was run: as §1
# FMOC14 = system: FMOC14 (patient-derived high-grade serous ovarian cancer cells)
# How it was run: as §1
# FMOC24 = system: FMOC24 (patient-derived high-grade serous ovarian cancer cells)
# How it was run: as §1
# FMOC02_2 = system: FMOC02_2 (patient-derived low-grade serous ovarian cancer cells)
# How it was run: as §1
# FMOC22 = system: FMOC22 (patient-derived mucinous ovarian cancer cells)
# How it was run: as §1
# FMOC28 = system: FMOC28 (patient-derived low-grade serous ovarian cancer cells)
# How it was run: as §1
# FMOC11 = system: FMOC11 (patient-derived high-grade serous ovarian cancer cells)
# How it was run: as §1
# FMOC27 = system: FMOC27 (patient-derived low-grade serous ovarian cancer cells)
# How it was run: as §1
# FMOC09 = system: FMOC09 (patient-derived high-grade serous ovarian cancer cells)
# How it was run: as §1
# FMOC04 = system: FMOC04 (patient-derived high-grade serous ovarian cancer cells)
# How it was run: as §1
# FMOC02_1 = system: FMOC02_1 (patient-derived low-grade serous ovarian cancer cells)
# How it was run: as §1
# FMOC25_2 = system: FMOC25_2 (patient-derived low-grade serous ovarian cancer cells)
# How it was run: as §1
# FMOC03 = system: FMOC03 (patient-derived mucinous ovarian cancer cells)
# How it was run: as §1
SMILES,drug sensitivity score (FMOC06),drug sensitivity score (FMOC02_3),drug sensitivity score (FMOC17),drug sensitivity score (FMOC14),drug sensitivity score (FMOC24),drug sensitivity score (FMOC02_2),drug sensitivity score (FMOC22),drug sensitivity score (FMOC28),drug sensitivity score (FMOC11),drug sensitivity score (FMOC27),drug sensitivity score (FMOC09),drug sensitivity score (FMOC04),drug sensitivity score (FMOC02_1),drug sensitivity score (FMOC25_2),drug sensitivity score (FMOC03)
Cc1c(-c2c(-c3ccc(F)o3)sc3ncnc(O[C@H](Cc4ccccc4OCc4ccnn4CC(F)(F)F)C(=O)O)c23)ccc(OCCN2CCN(C)CC2)c1Cl,0,2.8,0,0,8,0,0,0,0,0,0,0.05,0,0,0
C[C@H]1CNCCCN1S(=O)(=O)c1cccc2cncc(F)c12 [Ripasudil],0,0,0,0,0,0,0,0,0,0,0,0,0,0,0
CN1CCN(c2ccc(C(=O)Nc3n[nH]c4ccc(Cc5cc(F)cc(F)c5)cc34)c(NC3CCOCC3)c2)CC1 [Entrectinib],1.4,2.7,1.9,0,0,1.5,0,2.2,1.1,0,0.3,0.1,0.3,2.7,0
Cc1ccc(C(=O)Nc2cccc(C(F)(F)F)c2)cc1Nc1nc(-c2cccnc2)nc2c1cnn2C [NVP-BHG712],7.3,3.3,4.6,3.3,7.9,3,3.4,4.8,4.7,1.6,3,0,6.2,0,5.2
CN1CCN(C(=O)c2ccc3cc(CCNc4ncnc5ccc(C#N)cc45)ccc3c2)CC1 [Senexin B],1,2.9,0.6,0,0.2,1.3,0,0,0,0,0,0,0.6,1.2,1.5
Cc1ccc(=O)n(-c2ccccc2)c1 [Pirfenidone],0,0,0.6,0,0,0,0,0,0.1,0,0,0,0,0,0
CN(C(=O)c1ccc(F)cc1C(F)(F)F)C1CCN(c2nnc(-c3ccnn3C)c3ccccc23)CC1 [Taladegib],0,0,0,0,0,0,0,0,0,0,0,0,0,0,0
CNC(=O)c1ccc(N2C(=S)N(c3cnc(C#N)c(C(F)(F)F)c3)C(=O)C23CCC3)cc1F [Apalutamide],0,0,0,0,0.45,0,0,3.4,0,0,0,0,0,0,0
COCC[n+]1c2c(n(Cc3cnccn3)c1C)C(=O)c1ccccc1C2=O [Sepantronium bromide],32.9,36.1,36.9,42.6,33.5,30.6,33.2,43,37.8,30.9,43.7,38.1,38.4,41.4,39
CCCCOc1nc(N)c2c(n1)N(Cc1cccc(CN3CCCC3)c1)CC(=O)N2 [Vesatolimod],0,0,0,0,0,0,0,0,0,0,0.2,0,0,0.1,0
Cc1nc2cccc(N)c2c(=O)n1C1CCC(=O)NC1=O (stereo not given) [CC122],0,0.4,0.5,0.2,0,0,0,2.5,0,0.1,0,0,0,0,0
Nc1cc(COc2c(Cl)cc(C[C@H](N)C(=O)O)cc2Cl)c2oc(-c3ccccc3)nc2c1 [JPH203],0.4,0,0,0,0,0,0,0,0,0,0,0,0,0,0
